Test results as given in US20140155384A1, “COMPOUNDS AND METHODS OF TREATING DIABETES” (Medivation Technologies, Inc., priority 2011, published 2014).

Legend:
[1] = target: T1, human recombinant adrenergic α1D receptor (Homo sapiens, UniProt P25100); experiment: Radioligand binding, adrenergic α1D receptor ([3H]Prazosin); conditions: 0.1 μM compound; HEK-293 cells; 0.6 nM [3H]Prazosin; read-out: Percentage inhibition of ligand binding, Adrenergic α1D
T1 construct: expressed in transfected cells; host or cells: HEK-293
T1 sequence (P25100 1-572): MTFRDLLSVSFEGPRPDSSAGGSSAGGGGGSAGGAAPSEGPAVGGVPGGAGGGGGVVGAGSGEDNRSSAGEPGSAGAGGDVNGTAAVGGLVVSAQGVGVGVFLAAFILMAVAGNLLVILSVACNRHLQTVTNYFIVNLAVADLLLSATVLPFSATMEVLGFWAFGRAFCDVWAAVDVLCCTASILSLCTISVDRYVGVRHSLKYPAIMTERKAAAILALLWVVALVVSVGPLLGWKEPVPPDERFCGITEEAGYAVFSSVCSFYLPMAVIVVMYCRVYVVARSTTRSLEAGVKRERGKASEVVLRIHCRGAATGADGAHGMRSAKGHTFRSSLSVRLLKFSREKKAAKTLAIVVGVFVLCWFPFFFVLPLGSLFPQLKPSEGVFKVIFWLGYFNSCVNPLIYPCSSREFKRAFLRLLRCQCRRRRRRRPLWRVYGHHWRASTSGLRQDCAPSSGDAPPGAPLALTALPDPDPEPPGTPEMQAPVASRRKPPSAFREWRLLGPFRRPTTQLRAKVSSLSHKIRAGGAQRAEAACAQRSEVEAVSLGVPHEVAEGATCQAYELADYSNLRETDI
Description: Compounds were incubated with 0.6 nM [3H]Prazosin for 60 min at 25° C. Non-specific binding was estimated in the presence of 10 μM phentolamine. Receptor proteins were filtered and washed, the filters were then counted to determine [3H]Prazosin specifically bound. Compounds were screened at 1 μM or lower, using 1% DMSO as vehicle. Biochemical assay results are presented as the percent inhibition of specific binding in Table 2.

[2] = target: T2, rat adrenergic α1B receptor (Rattus norvegicus, UniProt P15823); experiment: Radioligand binding, adrenergic α1B receptor ([3H]Prazosin); conditions: 0.1 μM compound, Wistar rat liver, read-out: Percentage inhibition of ligand binding, Adrenergic α1B
T2 construct: rat adrenergic α1B receptor obtained from Wistar Rat liver; from tissue; host or cells: Wistar rat liver
T2 sequence (P15823 1-515): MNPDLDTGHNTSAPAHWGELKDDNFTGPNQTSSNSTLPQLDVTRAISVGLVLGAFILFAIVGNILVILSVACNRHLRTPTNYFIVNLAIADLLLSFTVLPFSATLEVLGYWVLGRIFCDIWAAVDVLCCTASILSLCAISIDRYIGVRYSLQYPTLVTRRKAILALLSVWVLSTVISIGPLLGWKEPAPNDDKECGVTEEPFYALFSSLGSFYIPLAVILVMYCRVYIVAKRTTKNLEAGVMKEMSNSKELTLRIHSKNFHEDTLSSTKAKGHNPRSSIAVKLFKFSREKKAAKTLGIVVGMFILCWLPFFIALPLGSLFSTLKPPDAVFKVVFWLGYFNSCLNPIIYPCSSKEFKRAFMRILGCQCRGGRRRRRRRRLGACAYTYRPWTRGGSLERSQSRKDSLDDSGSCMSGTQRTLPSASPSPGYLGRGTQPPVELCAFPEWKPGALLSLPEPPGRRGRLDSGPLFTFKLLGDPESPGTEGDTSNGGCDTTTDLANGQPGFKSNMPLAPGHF
Description: To evaluate in radioligand binding assays the activity of compounds, rat adrenergic α1B receptor obtained from Wistar Rat liver (Garcia-S' ainz, J. et al, Biochem. Biophys. Res. Commun. 186:760, 1992; Michel, A. et al, Br. J. Pharmacol. 98:883, 1989) in a modified Tris-HCl buffer (50 mM Tris-HCl buffer, pH 7.4, 0.5 mM EDTA) was used. Compounds were incubated with 0.25 nM [^3H]Prazosin for 60 min at […]. Non-specific binding was estimated in the presence of 10 μM phentolamine. Receptor proteins were filtered and washed, the filters were then counted to determine [^3H]Prazosin specifically bound. Compounds were screened at 1 μM or lower, using 1% DMSO as vehicle. Compounds were tested in this biochemical assay and percent inhibition of specific binding was determined. Biochemical assay results are presented as the percent inhibition of specific binding in Table 2.

[3] = target: T3, human recombinant adrenergic α2B receptor (Homo sapiens, UniProt P18089); experiment: Radioligand binding, adrenergic α2B receptor ([3H]Rauwolscine); conditions: 0.1 μM compound, CHO-K1 cells, read-out: Percentage inhibition of ligand binding, Adrenergic α2B
T3 construct: expressed in transfected cells; host or cells: CHO-K1
T3 sequence (P18089 1-450): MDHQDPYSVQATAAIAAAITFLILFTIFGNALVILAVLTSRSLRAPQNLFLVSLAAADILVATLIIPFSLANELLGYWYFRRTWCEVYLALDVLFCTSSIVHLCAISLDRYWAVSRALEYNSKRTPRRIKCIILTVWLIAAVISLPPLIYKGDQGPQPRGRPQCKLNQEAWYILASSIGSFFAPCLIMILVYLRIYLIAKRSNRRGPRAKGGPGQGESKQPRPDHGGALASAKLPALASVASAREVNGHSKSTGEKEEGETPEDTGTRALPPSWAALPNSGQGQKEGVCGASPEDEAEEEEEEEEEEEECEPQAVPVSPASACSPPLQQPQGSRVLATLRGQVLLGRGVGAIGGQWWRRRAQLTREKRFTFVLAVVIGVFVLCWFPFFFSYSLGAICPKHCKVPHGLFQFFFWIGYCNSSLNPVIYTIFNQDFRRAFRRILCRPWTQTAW
Description: To evaluate in radioligand binding assays the activity of compounds, human recombinant adrenergic α2B receptor expressed in Chinese hamster ovary (CHO) K1 cells (Uhlen, S. et al, Eur. J. Pharmacol. 343(1):93, 1998) in a modified Tris-HCl buffer (50 mM Tris-HCl, pH 7.4, 12.5 mM MgCl2, 1 mM EDTA, 0.2% BSA) was used. Compounds were incubated with 2.5 nM [^3H]Rauwolscine for 60 min at 25° C. Non-specific binding was estimated in the presence of 10 μM Prazosin. Receptor proteins were filtered and washed, the filters were then counted to determine [^3H]Rauwolscine specifically bound. Compounds were screened at 1 μM or lower, using 1% DMSO as vehicle. Compounds were tested in this biochemical assay and percent inhibition of specific binding was determined. Biochemical assay results are presented as the percent inhibition of specific binding in Table 2.

[4] = target: T4, human recombinant adrenergic α2A receptor (Homo sapiens, UniProt P08913); experiment: Radioligand binding, adrenergic α2A receptor ([3H]MK-912); conditions: 0.1 μM compound; Sf9 cells; 1 nM [3H]MK-912; read-out: Percentage inhibition of ligand binding, Adrenergic α2A
T4 construct: expressed in transfected cells; host or cells: insect Sf9 cells
T4 sequence (P08913 1-465): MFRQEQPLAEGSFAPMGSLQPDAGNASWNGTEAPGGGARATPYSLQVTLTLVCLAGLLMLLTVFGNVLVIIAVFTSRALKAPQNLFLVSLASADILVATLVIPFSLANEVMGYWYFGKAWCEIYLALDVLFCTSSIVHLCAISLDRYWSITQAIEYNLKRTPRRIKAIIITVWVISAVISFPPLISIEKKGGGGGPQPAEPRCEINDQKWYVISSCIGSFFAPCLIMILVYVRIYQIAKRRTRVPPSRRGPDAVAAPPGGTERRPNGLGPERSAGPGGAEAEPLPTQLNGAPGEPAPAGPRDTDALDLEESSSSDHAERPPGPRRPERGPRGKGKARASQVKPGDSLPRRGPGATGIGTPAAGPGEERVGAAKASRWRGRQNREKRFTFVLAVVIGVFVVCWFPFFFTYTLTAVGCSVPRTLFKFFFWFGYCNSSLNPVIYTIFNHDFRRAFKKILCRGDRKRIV
Description: To evaluate in radioligand binding assays the activity of compounds, human recombinant adrenergic α2A receptor expressed in insect Sf9 cells (Uhlen, S. et al, J. Pharmacol. Exp. Ther. 271:1558, 1994) in a modified Tris-HCl buffer (50 mM Tris-HCl, pH 7.4, 12.5 mM MgCl2, 2 mM EDTA) was used. Compounds were incubated with 1 nM [^3H]MK-912 for 60 min at 25° C. MK912 is (2S-trans)-1,3,4,5′,6,6′,7,12b-octahydro-1′,3′-dimethyl-spiro[2H-benzofuro[2,3-a]quinolizine-2,4′(1′H)-pyrimidin]-2′(3′H)-one hydrochloride Non-specific binding was estimated in the presence of 10 μM WB-4101 (2-(2,6-Dimethoxyphenoxyethyl)aminoethyl-1,4-benzodioxane hydrochloride). Receptor proteins were filtered and washed, the filters were then counted to determine [^3H]MK-912 specifically bound. Compounds were screened at 1 μM or lower, using 1% DMSO as vehicle. Compounds were tested in this biochemical assay and percent inhibition of specific binding was determined. Biochemical assay results are presented as the percent inhibition of specific binding in Table 2.

Row | SMILES | inhibition at 0.1 µM [1] [%] | inhibition at 0.1 µM [2] [%] | inhibition at 0.1 µM [3] [%] | inhibition at 0.1 µM [4] [%]
1 | Cc1ccc2c(c1)c1c(n2-c2cscc2-c2cncc3ccccc23)CCN(C)C1 [Compound 34] | 18 | 16 | 1 | 28
2 | Cc1ccc2c(c1)c1c(n2-c2cscc2-c2ccc(F)nc2)CCN(C)C1 [Compound 35] | 68 | 67 | 95 | 84
3 | Cc1ccc2c(c1)c1c(n2-c2ccc3cnccc3c2)CCN(C)C1 [Compound 38] | 32 | 31 | 57 | 32
4 | Cc1ccc2c(c1)c1c(n2-c2cscc2-c2cnc(N(C)C)nc2)CCN(C)C1 [Compound 40] | 79 | 43 | 89 | 91
5 | Cc1ccc2c(c1)c1c(n2-c2cccc(-c3ccc(F)nc3)c2)CCN(C)C1 [Compound 44, 5-(3-(6-fluoropyridin-3-yl)phenyl)-2,8-dimethyl-2,3,4,5-tetrahydro-1H-pyrido[4,3-b]indole] | 2 | 0 | 12 | 29
6 | CC(=O)Nc1ccc(-c2cccc(-n3c4c(c5cc(C)ccc53)CN(C)CC4)c2)cn1 [Compound 45, N-(5-(3-(2,8-dimethyl-3,4-dihydro-1H-pyrido[4,3-b]indol-5(2H)-yl)phenyl)pyridin-2-yl)acetamide] | 1 | 1 | 6 | 12
7 | Cc1ccc2c(c1)c1c(n2-c2cccc(-c3cnn(C)c3)c2)CCN(C)C1 [Compound 46, 2,8-dimethyl-5-(3-(1-methyl-1H-pyrazol-4-yl)phenyl)-2,3,4,5-tetrahydro-1H-pyrido[4,3-b]indole] | 8 | -7 | 21 | 48
8 | Cc1cc(C)c2c(c1)c1c(n2-c2ccc3ncccc3c2)CCN(C)C1 [Compound 48] | -5 | 1 | 16 | 19
9 | Cc1ccc2c(c1)c1c(n2-c2cscc2-c2ccc(O)nc2)CCN(C)C1 [Compound 49] | 14 | 12 | 31 | -3

The next lines start with the values.

Row | inhibition at 0.1 µM [1] [%] | inhibition at 0.1 µM [2] [%] | inhibition at 0.1 µM [3] [%] | inhibition at 0.1 µM [4] [%] | SMILES
10 | 26 | 13 | 79 | 90 | Cc1csc(-c2ccccc2-n2c3c(c4cc(C)ccc42)CN(C)CC3)c1 [Compound 36]
11 | 62 | 67 | 70 | 98 | Cc1ccc2c(c1)c1c(n2-c2cscc2-c2sccc2C)CCN(C)C1 [Compound 39]
12 | 76 | 77 | 70 | 87 | Cc1ccc2c(c1)c1c(n2-c2cscc2-c2cccc3[nH]ncc23)CCN(C)C1 [Compound 41]
13 | -3 | 10 | 7 | 17 | Cc1ccc2c(c1)c1c(n2-c2cccc(-c3cnc(N(C)C)nc3)c2)CCN(C)C1 [Compound 42, 5-(3-(2,8-dimethyl-3,4-dihydro-1H-pyrido[4,3-b]indol-5(2H)-yl)phenyl)-N,N-dimethylpyrimidin-2-amine]
14 | 3 | 9 | 6 | 31 | Cc1ccc2c(c1)c1c(n2-c2cccc(-c3sccc3C)c2)CCN(C)C1 [Compound 43, 2,8-dimethyl-5-(3-(3-methylthiophen-2-yl)phenyl)-2,3,4,5-tetrahydro-1H-pyrido[4,3-b]indole]
15 | 3 | 5 | 6 | 62 | Cc1cc(C)c2c(c1)c1c(n2-c2cccc3ncccc23)CCN(C)C1 [Compound 47]
